Non-standard residues stand in square brackets, D forms with d. Residues, ends and D or L forms follow the SMILES beside them. *: point of attachment. X5 = O=C(O)c1cc(NC(=S)*)ccc1-c1c2ccc(=O)cc-2oc2cc(O)ccc12; Benzoyl(2,3,4,5,6-F5) = O=C(c1c(F)c(F)c(F)c(F)c1F)*; Benzoyl(2,3-Cl2) = O=C(c1cccc(Cl)c1Cl)*; Cyclohexanecarbonyl = O=C(C1CCCCC1)*; Cyclopentanecarbonyl = O=C(C1CCCC1)*; X7 = O=C(c1cc(F)c(F)c(F)c1F)*; Tle = CC(C)(C)[C@H](N)C(=O)O; X4 = O=C(c1ccc(Br)c(Cl)c1)*; X6 = Cc1ccc(C(=O)*)c(F)c1F; AEEA = NCCOCCOCC(=O)O; Bz = O=C(c1ccccc1)*; βAla = NCCC(=O)O; For = O=C*

The results in this text go back to ChEMBL document CHEMBL4699579, “A Peptidyl Inhibitor that Blocks Calcineurin-NFAT Interaction and Prevents Acute Lung Injury” (J Med Chem, 2020).

One data set can be described thus: Binding affinity to GST-tagged Calcineurin (unknown origin) incubated for 1 hr by fluorescence polarization assay. Further details: species or system Homo sapiens.
Take `CC[C@H](C)[C@H](NC(=O)[C@@H](NC(=O)c1cccc(Cl)c1Cl)C(C)(C)C)C(=O)N[C@H](C(=O)N[C@H](C(=O)N[C@H](C(=O)N[C@@H](Cc1ccc(O)cc1)C(=O)N[C@H](CCC(=O)O)C(=O)N[C@@H](Cc1ccc(F)cc1)C(=O)N[C@@H](Cc1c[nH]cn1)C(=O)NCCC(=O)N[C@@H](CCCCNC(=S)Nc1ccc(-c2c3ccc(=O)cc-3oc3cc(O)ccc23)c(C(=O)O)c1)C(N)=O)[C@@H](C)O)[C@@H](C)CC)C(C)(C)C`: the Kd is 12 nM.
Same read-out and setting: the same measure for `CC[C@H](C)[C@H](NC(=O)[C@@H](NC(=O)c1cccc(Cl)c1Cl)C(C)(C)C)C(=O)N[C@H](C(=O)N[C@H](C(=O)N[C@H](C(=O)N[C@@H](CC(=O)O)C(=O)N[C@@H](CCC(N)=O)C(=O)N[C@@H](Cc1ccc(O)cc1)C(=O)N[C@H](CCCCN)C(=O)NCCC(=O)N[C@@H](CCCCNC(=S)Nc1ccc(-c2c3ccc(=O)cc-3oc3cc(O)ccc23)c(C(=O)O)c1)C(N)=O)[C@@H](C)O)[C@@H](C)CC)C(C)(C)C`: 22 nM.
Still for that read-out and setting: as for `CC[C@H](C)[C@H](NC(=O)[C@@H](NC(=O)c1ccc(Br)c(Cl)c1)C(C)(C)C)C(=O)N[C@H](C(=O)N[C@H](C(=O)N[C@H](C(=O)NCC(=O)N1CCC[C@H]1C(=O)N[C@@H](Cc1c[nH]cn1)C(=O)N[C@@H](CCC(=O)O)C(=O)N[C@@H](CCC(=O)O)C(=O)N[C@@H](Cc1ccc(O)cc1)C(=O)N[C@@H](CCCCNC(=S)Nc1ccc(-c2c3ccc(=O)cc-3oc3cc(O)ccc23)c(C(=O)O)c1)C(N)=O)[C@@H](C)O)[C@@H](C)CC)C(C)(C)C` (X4-[Tle]I[Tle]ITGPHEEYK(X5)-NH2), the figure is 189 nM.
Same read-out and setting: as for `CC[C@H](C)[C@H](NC(=O)[C@@H](NC(=O)c1cccc(Cl)c1Cl)C(C)(C)C)C(=O)N[C@H](C(=O)N[C@H](C(=O)N[C@H](C(=O)NCCOCCOCC(=O)N[C@@H](CCCCNC(=S)Nc1ccc(-c2c3ccc(=O)cc-3oc3cc(O)ccc23)c(C(=O)O)c1)C(N)=O)[C@@H](C)O)[C@@H](C)CC)C(C)(C)C` ({Benzoyl(2,3-Cl2)}-[Tle]I[Tle]IT[AEEA]K(X5)-NH2), the figure is 700 nM.
With `CC[C@H](C)[C@H](NC(=O)[C@@H](NC(=O)c1ccccc1)C(C)(C)C)C(=O)N[C@H](C(=O)N[C@H](C(=O)N[C@H](C(=O)NCC(=O)N1CCC[C@H]1C(=O)N[C@@H](Cc1c[nH]cn1)C(=O)N[C@@H](CCC(=O)O)C(=O)N[C@@H](CCC(=O)O)C(=O)N[C@@H](Cc1ccc(O)cc1)C(=O)N[C@@H](CCCCNC(=S)Nc1ccc(-c2c3ccc(=O)cc-3oc3cc(O)ccc23)c(C(=O)O)c1)C(N)=O)[C@@H](C)O)[C@@H](C)CC)C(C)(C)C` (Bz-[Tle]I[Tle]ITGPHEEYK(X5)-NH2), the Kd was found to be 224 nM.
Still for that read-out and setting: as for `CC[C@H](C)[C@H](NC(=O)[C@@H](NC(C)=O)C(C)(C)C)C(=O)N[C@H](C(=O)N[C@H](C(=O)N[C@H](C(=O)NCC(=O)N1CCC[C@H]1C(=O)N[C@@H](Cc1c[nH]cn1)C(=O)N[C@@H](CCC(=O)O)C(=O)N[C@@H](CCC(=O)O)C(=O)N[C@@H](Cc1ccc(O)cc1)C(=O)N[C@@H](CCCCNC(=S)Nc1ccc(-c2c3ccc(=O)cc-3oc3cc(O)ccc23)c(C(=O)O)c1)C(N)=O)[C@@H](C)O)[C@@H](C)CC)C(C)(C)C` (Ac-[Tle]I[Tle]ITGPHEEYK(X5)-NH2), the figure is above 5400 nM.
On the same count and under the same terms, the same measure for `CC[C@H](C)[C@H](NC(=O)[C@@H](NC(=O)c1ccc(C)c(F)c1F)C(C)(C)C)C(=O)N[C@H](C(=O)N[C@H](C(=O)N[C@H](C(=O)NCC(=O)N1CCC[C@H]1C(=O)N[C@@H](Cc1c[nH]cn1)C(=O)N[C@@H](CCC(=O)O)C(=O)N[C@@H](CCC(=O)O)C(=O)N[C@@H](Cc1ccc(O)cc1)C(=O)N[C@@H](CCCCNC(=S)Nc1ccc(-c2c3ccc(=O)cc-3oc3cc(O)ccc23)c(C(=O)O)c1)C(N)=O)[C@@H](C)O)[C@@H](C)CC)C(C)(C)C` (X6-[Tle]I[Tle]ITGPHEEYK(X5)-NH2): 74 nM.
As for `CC[C@H](C)[C@H](NC(=O)[C@@H](NC(=O)CNC(=O)[C@H](Cc1c[nH]cn1)NC(=O)[C@@H]1CCCN1C(=O)CNC(C)=O)C(C)(C)C)C(=O)N[C@H](C(=O)N[C@H](C(=O)N[C@H](C(=O)NCC(=O)N1CCC[C@H]1C(=O)N[C@@H](Cc1c[nH]cn1)C(=O)N[C@@H](CCC(=O)O)C(=O)N[C@@H](CCC(=O)O)C(=O)N[C@@H](Cc1ccc(O)cc1)C(=O)N[C@@H](CCCCNC(=S)Nc1ccc(-c2c3ccc(=O)cc-3oc3cc(O)ccc23)c(C(=O)O)c1)C(N)=O)[C@@H](C)O)[C@@H](C)CC)C(C)(C)C` (Ac-GPHG[Tle]I[Tle]ITGPHEEYK(X5)-NH2), the Kd was found to be 92 nM.
Take `CC[C@H](C)[C@H](NC(=O)[C@@H](NC(=O)c1cccc(Cl)c1Cl)C(C)(C)C)C(=O)N[C@H](C(=O)N[C@H](C(=O)N[C@H](C(=O)N[C@@H](CCC(N)=O)C(=O)N[C@@H](Cc1c[nH]cn1)C(=O)N[C@H](CC(C)C)C(=O)N[C@@H](CO)C(=O)NCCC(=O)N[C@@H](CCCCNC(=S)Nc1ccc(-c2c3ccc(=O)cc-3oc3cc(O)ccc23)c(C(=O)O)c1)C(N)=O)[C@@H](C)O)[C@@H](C)CC)C(C)(C)C`: the dissociation constant (Kd) came to 9.1 nM.
Take `CC[C@H](C)[C@H](NC(=O)[C@@H](NC(=O)C1CCCCC1)C(C)(C)C)C(=O)N[C@H](C(=O)N[C@H](C(=O)N[C@H](C(=O)NCC(=O)N1CCC[C@H]1C(=O)N[C@@H](Cc1c[nH]cn1)C(=O)N[C@@H](CCC(=O)O)C(=O)N[C@@H](CCC(=O)O)C(=O)N[C@@H](Cc1ccc(O)cc1)C(=O)N[C@@H](CCCCNC(=S)Nc1ccc(-c2c3ccc(=O)cc-3oc3cc(O)ccc23)c(C(=O)O)c1)C(N)=O)[C@@H](C)O)[C@@H](C)CC)C(C)(C)C` (Cyclohexanecarbonyl-[Tle]I[Tle]ITGPHEEYK(X5)-NH2): the Kd came out at 207 nM.
For `CC[C@H](C)[C@H](NC(=O)[C@@H](NC(=O)c1cc(F)c(F)c(F)c1F)C(C)(C)C)C(=O)N[C@H](C(=O)N[C@H](C(=O)N[C@H](C(=O)NCC(=O)N1CCC[C@H]1C(=O)N[C@@H](Cc1c[nH]cn1)C(=O)N[C@@H](CCC(=O)O)C(=O)N[C@@H](CCC(=O)O)C(=O)N[C@@H](Cc1ccc(O)cc1)C(=O)N[C@@H](CCCCNC(=S)Nc1ccc(-c2c3ccc(=O)cc-3oc3cc(O)ccc23)c(C(=O)O)c1)C(N)=O)[C@@H](C)O)[C@@H](C)CC)C(C)(C)C` (X7-[Tle]I[Tle]ITGPHEEYK(X5)-NH2), the Kd was found to be 32 nM.
Still for that read-out and setting: the same measure for `CC[C@H](C)[C@H](NC(=O)[C@@H](NC(=O)c1cccc(Cl)c1Cl)C(C)(C)C)C(=O)N[C@H](C(=O)N[C@H](C(=O)N[C@H](C(=O)N[C@@H](CC(=O)O)C(=O)N[C@@H](CCC(N)=O)C(=O)N[C@@H](Cc1ccc(O)cc1)C(=O)N[C@@H](CCCNC(=N)N)C(=O)NCCC(=O)N[C@@H](CCCCNC(=S)Nc1ccc(-c2c3ccc(=O)cc-3oc3cc(O)ccc23)c(C(=O)O)c1)C(N)=O)[C@@H](C)O)[C@@H](C)CC)C(C)(C)C` ({Benzoyl(2,3-Cl2)}-[Tle]I[Tle]ITDQYR[βAla]K(X5)-NH2): 64 nM; for `CC[C@H](C)[C@H](NC(=O)[C@@H](NC=O)C(C)(C)C)C(=O)N[C@H](C(=O)N[C@H](C(=O)N[C@H](C(=O)NCC(=O)N1CCC[C@H]1C(=O)N[C@@H](Cc1c[nH]cn1)C(=O)N[C@@H](CCC(=O)O)C(=O)N[C@@H](CCC(=O)O)C(=O)N[C@@H](Cc1ccc(O)cc1)C(=O)N[C@@H](CCCCNC(=S)Nc1ccc(-c2c3ccc(=O)cc-3oc3cc(O)ccc23)c(C(=O)O)c1)C(N)=O)[C@@H](C)O)[C@@H](C)CC)C(C)(C)C` (For-[Tle]I[Tle]ITGPHEEYK(X5)-NH2): above 5800 nM.
On the same count and under the same terms, as for `CC[C@H](C)[C@H](NC(=O)[C@@H](NC(=O)c1cccc(Cl)c1Cl)C(C)(C)C)C(=O)N[C@H](C(=O)N[C@H](C(=O)N[C@H](C(=O)NCC(=O)N1CCC[C@H]1C(=O)N[C@@H](Cc1c[nH]cn1)C(=O)N[C@@H](CCC(=O)O)C(=O)N[C@@H](CCC(=O)O)C(=O)N[C@@H](Cc1ccc(O)cc1)C(=O)N[C@@H](CCCCNC(=S)Nc1ccc(-c2c3ccc(=O)cc-3oc3cc(O)ccc23)c(C(=O)O)c1)C(N)=O)[C@@H](C)O)[C@@H](C)CC)C(C)(C)C` ({Benzoyl(2,3-Cl2)}-[Tle]I[Tle]ITGPHEEYK(X5)-NH2), the figure is 41 nM; as for `CC[C@H](C)[C@H](NC(=O)[C@@H](NC(=O)c1c(F)c(F)c(F)c(F)c1F)C(C)(C)C)C(=O)N[C@H](C(=O)N[C@H](C(=O)N[C@H](C(=O)NCC(=O)N1CCC[C@H]1C(=O)N[C@@H](Cc1c[nH]cn1)C(=O)N[C@@H](CCC(=O)O)C(=O)N[C@@H](CCC(=O)O)C(=O)N[C@@H](Cc1ccc(O)cc1)C(=O)N[C@@H](CCCCNC(=S)Nc1ccc(-c2c3ccc(=O)cc-3oc3cc(O)ccc23)c(C(=O)O)c1)C(N)=O)[C@@H](C)O)[C@@H](C)CC)C(C)(C)C` ({Benzoyl(2,3,4,5,6-F5)}-[Tle]I[Tle]ITGPHEEYK(X5)-NH2), 77 nM; as for `CC[C@H](C)[C@H](NC(=O)[C@@H](NC(=O)c1cccc(Cl)c1Cl)C(C)(C)C)C(=O)N[C@H](C(=O)N[C@H](C(=O)N[C@H](C(=O)N[C@@H](CCC(N)=O)C(=O)N[C@@H](Cc1c[nH]cn1)C(=O)N[C@H](CC(C)C)C(=O)N[C@@H](Cc1c[nH]cn1)C(=O)NCCC(=O)N[C@@H](CCCCNC(=S)Nc1ccc(-c2c3ccc(=O)cc-3oc3cc(O)ccc23)c(C(=O)O)c1)C(N)=O)[C@@H](C)O)[C@@H](C)CC)C(C)(C)C`, 4.7 nM.
On the same count and under the same terms, as for `CC[C@H](C)[C@H](NC(=O)[C@@H](NC(=O)C1CCCC1)C(C)(C)C)C(=O)N[C@H](C(=O)N[C@H](C(=O)N[C@H](C(=O)NCC(=O)N1CCC[C@H]1C(=O)N[C@@H](Cc1c[nH]cn1)C(=O)N[C@@H](CCC(=O)O)C(=O)N[C@@H](CCC(=O)O)C(=O)N[C@@H](Cc1ccc(O)cc1)C(=O)N[C@@H](CCCCNC(=S)Nc1ccc(-c2c3ccc(=O)cc-3oc3cc(O)ccc23)c(C(=O)O)c1)C(N)=O)[C@@H](C)O)[C@@H](C)CC)C(C)(C)C` (Cyclopentanecarbonyl-[Tle]I[Tle]ITGPHEEYK(X5)-NH2), the figure is 357 nM.

The next data set can be described thus: Half life in 25% human serum at 5 uM at 37 degC by HPLC analysis. It is filed as ADME, cell-free.
Molecule `CC[C@H](C)[C@H](NC(=O)[C@@H](NC(=O)[C@@H]1CCCN1C(=O)[C@H](Cc1cnc[nH]1)NC(=O)[C@@H]1CCCN1C(=O)CN)C(C)C)C(=O)N[C@H](C(=O)N[C@H](C(=O)N[C@H](C(=O)NCC(=O)N1CCC[C@H]1C(=O)N[C@@H](Cc1cnc[nH]1)C(=O)N[C@@H](CCC(=O)O)C(=O)N[C@@H](CCC(=O)O)C(=O)O)[C@@H](C)O)[C@@H](C)CC)C(C)C` had a half-life at 5 µM of 60 min.
